Test results as given in patent US20190091339A1, “ABIRATERONE-CYCLIC OLIGOMER PHARMACEUTICAL FORMULATIONS AND METHODS OF FORMATION AND ADMINISTRATION THEREOF” (DISPERSOL TECHNOLOGIES, LLC, priority 2017, published 2019).
“And” between values parts separate entries of the source, which are not always exact repeats. Identical values can stand only once.

What was measured:
[1] = system: 22RV1 human prostate tumor xenograft; test: Anti-tumor study in 22RV1 xenograft mice; type: in vivo, CB.17 SCID mice; conditions: for Tumor Volume Day 26, individual mice: QD to End, Oral Gavage; for % T/C (mean tumor volume) / % T/C (median tumor volume) / Mean Tumor Volume / Median Tumor Volume: Day 26
Method: The objective of the xenograft mice study was to determine the anti-tumor activity of a composition made per Example 2.4 as a single agent versus abiraterone acetate in the 22RV1 human prostate tumor xenograft model. The study was conducted in CB.17 SCID mice injected with 22RV1 cells (5×10^6 cells/mouse) in the subcutaneous right flank. Tumors were grown to a mean tumor size between 100 and 150 mm^3 prior to study enrollment. The mice were dosed with the test article and reference once-daily by oral gavage per Table 12. Tumor volume was measured throughout the study. The study was terminated on day 26 when mean tumor volume of two experimental groups reached ≥1500 mm^3.

[2] = system: prostate specific antigen (PSA); conditions: 1,000 mg abiraterone acetate daily, well controlled trials; cited from earlier work
[3] = Abiraterone Acetate 22.4 mg/kg QD PO
[4] = Abiraterone Acetate 100 mg/kg QD PO

CC(=O)O[C@H]1CC[C@@]2(C)C(=CC[C@@H]3[C@@H]2CC[C@]2(C)C(c4cccnc4)=CC[C@@H]32)C1 [Abiraterone Acetate, (3β)-17(3-pyridinyl)androsta-5,16-dien-3-ol acetate]
Tumor Volume Day 26, individual mice ([1]; Abiraterone Acetate Dose #1, 22.4 mg/kg): 1,062 mm^3 and 1,389 mm^3 and 808 mm^3 and 1,555 mm^3 and 2,107 mm^3 and 726 mm^3 and 1,606 mm^3 and 1,119 mm^3 and 1,127 mm^3 and 1,143 mm^3 | Tumor Volume Day 26, individual mice ([1]; Abiraterone Acetate Dose #2, 100 mg/kg): 1,609 mm^3 and 1,639 mm^3 and 1,084 mm^3 and 1,490 mm^3 and 1,429 mm^3 and 1,453 mm^3 and 1,152 mm^3 and 1,568 mm^3 and 1,287 mm^3 and 2,787 mm^3 | % T/C (mean tumor volume) [1, 3]: 84.1% | % T/C (median tumor volume) [1, 3]: 72.8% | Mean Tumor Volume [1, 3]: 1264.2 mm^3 | Median Tumor Volume [1, 3]: 1135.0 mm^3 | % T/C (mean tumor volume) [1, 4]: 103.1% | % T/C (median tumor volume) [1, 4]: 94.4% | Mean Tumor Volume [1, 4]: 1549.4 mm^3 | Median Tumor Volume [1, 4]: 1471.5 mm^3 | tumor growth relative to vehicle control ([1]; once-daily oral gavage, low and high doses, 22RV1 xenograft mice): did not result in statistically different tumor growth | treated patients achieving target PSA reductions [2]: up to 60%
